Measurements published in patent publication US20100197587A1, “USE OF A PEPTIDE AS A THERAPEUTIC AGENT” (priority 2007, published 2010).
No end group written: not given here.

What was measured:
HCMV strain AD169 = test: HCMV plaque formation assay in MRC-5 cells; details: for inhibition of HCMV plaque formation as compared to the virus control experiment: 10 micrograms per ml, 7-10 days
HIV-1IIIB = test: HIV-1 antiviral assay in CEM-SS cells (MTS readout); details: positive controls
[1] = test system: hepatitis B virus (HBV) ayw strain; test: HBV assay in HepG2-2.2.15 cells (secreted HBV DNA by TaqMan PCR); assay type: cell-based; details: 10 micrograms per ml; HepG2-2.2.15, six days, HBV DNA in supernatant
[2] = test system: RAW 264.7 (Mouse leukaemic monocyte macrophage cell line) cells; test: Phagocytosis assay (Fluorescein-labeled Escherichia coli, flow cytometry); assay type: cell-based; details: 10 micrograms per ml; RAW 264.7, Fluorescein-labeled E. coli
spleen cells = test: Th1/Th2 cytokine profiling assay (Ovalbumin-restimulated spleen cells); details: 10 micrograms per ml; Ovalbumin restimulation, 72 hours, supernatant
From the text: The Balb/c mice (originated in 1923, it is a popular strain and is used in many different research disciplines. Also classified as an inbred from the production of 20 or more successive brother-sister matings, the Balb/c mouse is albino and small in size) were immunized on Days 1, 15, and 29 with Ovalbumin (Ovalbumin is the main protein found in egg white, commonly used to stimulate an immunological reaction in test animals) in PBS (5 micrograms/injection). On day 50, spleens of the mice were harvested (3 weeks after last boost with Ovalbumin). […] Thereafter, additional Ovalbumin was added to the cells at 10 micrograms/ml for in vitro restimulation of the cells. 72 hours later, cell supernatants were harvested and assayed using the Becton Dickinson Mouse Th1/Th2 Cytokine CBA Kit. This kit can be used to measure Interleukin-2 (IL-2), Interleukin-4 (IL-4), Interleukin-5 (IL-5), Interferon-γ (IFN-γ), and Tumor Necrosis Factor-α (TNF-α) protein levels in a single sample.

| Molecule | antiviral activity of positive control compounds (HIV-1) (HIV-1IIIB) | inhibition of HBV replication as compared to the virus control infection [1] [%] | inhibition of HCMV plaque formation as compared to the virus control experiment (HCMV strain AD169) | IFNγ spleen cells; TH1 response (% of control) (spleen cells) | IL-2 spleen cells (% of control) (spleen cells) | IL-4 spleen cells; TH2 response (% of control) (spleen cells) | IL-5 spleen cells; TH2 response (% of control) (spleen cells) | TNF-a spleen cells; TH1 response (% of control) (spleen cells) | other results |
| --- | --- | --- | --- | --- | --- | --- | --- | --- | --- |
| Nc1nc(O)c2ncn(COC(CO)CO)c2n1 [Ganciclovir, reference compound] | – | – | – | – | – | – | – | – | antiviral activity of positive control compound (HCMV) (HCMV strain AD169; positive control, HCMV AD169): expected levels of antiviral activity |
| CC(C)(C)NC(=O)[C@@H]1CN(Cc2cccnc2)CCN1C[C@@H](O)C[C@@H](Cc1ccccc1)C(=O)N[C@H]1c2ccccc2C[C@H]1O [indinavir] | expected levels of antiviral activity | – | – | – | – | – | – | – | – |
| His-Ala-Asp-Gly-Ser-Phe-Ser-Asp-Glu-Met-Asn-Thr-Ile-Leu-Asp-Asn-Leu-Ala-Ala-Arg-Asp-Phe-Ile-Asn-Trp-Leu-Ile-Gln-Thr-Lys-Ile-Thr-Asp-Arg-OH (HADGSFSDEMNTILDNLAARDFINWLIQTKITDR-OH) [Peptide 1] | – | 59.7 | did not inhibit | 132.7 % of control | 0.0 % of control | 0.0 % of control | 48.2 % of control | 102.2 % of control | increase of the phagocytic activity of murine macrophages [2]: 22.9% |
| His-Ala-Asp-Gly-Ser-Phe-Ser-Asp-Glu-Met-Asn-Thr-Ile-Leu-Asp-Asn-Leu-Ala-Ala-Arg-Asp-Phe-Ile-Asn-Trp-Leu-Ile-Gln-Thr-Lys-Ile-Thr-Asp-OH [Peptide 2] | – | 59.2 | 18.8% | 132.7 % of control | 183.3 % of control | 104.4 % of control | 108.4 % of control | 143.7 % of control | inhibitory effects on the phagocytic activity of murine macrophages [2]: no inhibitory effects |
| Cc1cn([C@H]2C[C@H](N=[N+]=[N-])[C@@H](CO)O2)c(=O)[nH]c1=O [AZT] | expected levels of antiviral activity | – | – | – | – | – | – | – | – |
